From the supplement of paper PMC11061612

How the values were obtained:
AZD5363 = compound: C1CN(CCC1(C(=O)N[C@@H](CCO)C2=CC=C(C=C2)Cl)N)C3=NC=NC4=C3C=CN4 [AZD5363]; settings: max 10 µM
Outline: (§1)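 Following 24 hours at 37°C and 5% CO2, cancer cell lines in 1536-well plates with 7.5 μl DMEM/F12 or RPMI and 10% FBS were dosed for 72 hours, final DMSO typically being 0.2%. CellTiter-Glo 2.0 luminescence, scaled between blank-well and DMSO-well means, gave the viability readout. Dose responses were fitted to a two-parameter logistic curve with a non-linear mixed effects model, and the single-agent IC50 was derived from this fit.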

AZD8186 = compound: C[C@@H](Nc1cc(F)cc(F)c1)c1cc(C(=O)N(C)C)cc2c(=O)cc(N3CCOCC3)oc12 [AZD8186]; settings: max 10 µM
Outline: as §1

AZD4320 = compound: CN(CC[C@H](CSC1=CC=CC=C1)NC2=C(C=C(C=C2)S(=O)(=O)NC(=O)C3=CC=C(C=C3)N4CCC(CC4)[C@H](C5=CC=CC=C5C6=CC=C(C=C6)Cl)O)S(=O)(=O)C(F)(F)F)CCO [AZD4320]; settings: max 1 µM
Outline: as §1

Etoposide = compound: COc1cc([C@@H]2c3cc4c(cc3[C@@H](O[C@@H]3O[C@@H]5CO[C@@H](C)O[C@H]5[C@H](O)[C@H]3O)[C@H]3COC(=O)[C@H]23)OCO4)cc(OC)c1O [Etoposide]; settings: max 10 µM
Outline: as §1

5-Fluorouracil = compound: O=c1[nH]cc(F)c(=O)[nH]1 [5-Fluorouracil]; settings: max 20 µM
Outline: as §1

Venetoclax = compound: CC1(C)CCC(CN2CCN(c3ccc(C(=O)NS(=O)(=O)c4ccc(NCC5CCOCC5)c([N+](=O)[O-])c4)c(Oc4cnc5[nH]ccc5c4)c3)CC2)=C(c2ccc(Cl)cc2)C1 [Venetoclax]; settings: max 1 µM
Outline: as §1

[1] = compound: O=C(Nc1ccc2[nH]nc(-c3ccncc3)c2c1)[C@@H]1CCN(CC(=O)N2CCN(c3ccc(-c4ncccn4)cc3)CC2)C1; settings: max 5 µM
Outline: as §1

AZD5153 = compound: COc1nnc2ccc(N3CCC(c4ccc(OCCN5CCN(C)C(=O)[C@H]5C)cc4)CC3)nn12 [AZD5153]; settings: max 1 µM
Outline: as §1

Alisertib = compound: COc1cc(Nc2ncc3c(n2)-c2ccc(Cl)cc2C(c2c(F)cccc2OC)=NC3)ccc1C(=O)O [Alisertib]; settings: max 10 µM
Outline: as §1

AZD1390 = compound: CC(C)n1c(=O)n(C)c2cnc3cc(F)c(-c4ccc(OCCCN5CCCCC5)nc4)cc3c21 [AZD1390]; settings: max 0.3 µM
Outline: as §1

Trametinib = compound: CC(=O)Nc1cccc(-n2c(=O)n(C3CC3)c(=O)c3c(Nc4ccc(I)cc4F)n(C)c(=O)c(C)c32)c1 [Trametinib]; settings: max 1 µM
Outline: as §1

Paclitaxel = compound: CC(=O)O[C@H]1C(=O)[C@@]2(C)[C@H]([C@H](OC(=O)c3ccccc3)[C@]3(O)C[C@H](OC(=O)[C@H](O)[C@@H](NC(=O)c4ccccc4)c4ccccc4)C(C)=C1C3(C)C)[C@]1(OC(C)=O)CO[C@@H]1C[C@@H]2O [Paclitaxel]; settings: max 3 µM
Outline: as §1

Carboplatin = compound: C1CC(C1)(C(=O)[O-])C(=O)[O-].N.N.[Pt+2] [Carboplatin]; settings: max 10 µM
Outline: as §1

AZD5991 = compound: Cc1c2c(nn1C)CSCc1cc(n(C)n1)CSc1cc(c3ccccc3c1)OCCCc1c(C(=O)O)n(C)c3c-2c(Cl)ccc13 [AZD5991]; settings: max 1 µM
Outline: as §1

Olaparib = compound: O=C(c1cc(Cc2n[nH]c(=O)c3ccccc23)ccc1F)N1CCN(C(=O)C2CC2)CC1 [Olaparib]; settings: max 10 µM
Outline: as §1

Taselisib = compound: Cc1nc(-c2cn3c(n2)-c2ccc(-c4cnn(C(C)(C)C(N)=O)c4)cc2OCC3)n(C(C)C)n1 [Taselisib]; settings: max 10 µM
Outline: as §1

AZD0156 = compound: CN(C)CCCOc1ccc(-c2ccc3ncc4c(c3c2)n(C2CCOCC2)c(=O)n4C)cn1 [AZD0156]; settings: max 3 µM
Outline: as §1

Gemcitabine = compound: Nc1ccn([C@@H]2O[C@H](CO)[C@@H](O)C2(F)F)c(=O)n1 [Gemcitabine]; settings: max 0.3 µM
Outline: as §1

Gefitinib = compound: COc1cc2ncnc(Nc3ccc(F)c(Cl)c3)c2cc1OCCCN1CCOCC1 [Gefitinib]; settings: max 10 µM
Outline: as §1

AZD1775 = compound: C=CCn1c(=O)c2cnc(Nc3ccc(N4CCN(C)CC4)cc3)nc2n1-c1cccc(C(C)(C)O)n1 [AZD1775]; settings: max 3 µM
Outline: as §1

AZD7648 = compound: Cc1cc2ncnn2cc1Nc1ncc2c(n1)n(C1CCOCC1)c(=O)n2C [AZD7648]; settings: max 10 µM
Outline: as §1

AZD2811 = compound: CCN(CCO)CCCOc1ccc2c(Nc3cc(CC(=O)Nc4cccc(F)c4)[nH]n3)ncnc2c1 [AZD2811]; settings: max 1 µM
Outline: as §1

Savolitinib = compound: C[C@@H](c1ccc2nccn2c1)n1nnc2ncc(-c3cnn(C)c3)nc21 [Savolitinib]; settings: max 1 µM
Outline: as §1

SG3199 = compound: CC1=CN2[C@@H](C1)C=NC3=CC(=C(C=C3C2=O)OC)OCCCCCOC4=C(C=C5C(=C4)N=C[C@@H]6CC(=CN6C5=O)C)OC [SG3199]; settings: max 0.001 µM
Outline: as §1

Dasatinib = compound: CC1=C(C(=CC=C1)Cl)NC(=O)C2=CN=C(S2)NC3=CC(=NC(=N3)C)N4CCN(CC4)CCO [Dasatinib]; settings: max 2 µM
Outline: as §1

Prexasertib = compound: COc1cccc(OCCCN)c1-c1cc(Nc2cnc(C#N)cn2)n[nH]1 [Prexasertib]; settings: max 1 µM
Outline: as §1

Palbociclib = compound: CC(=O)c1c(C)c2cnc(Nc3ccc(N4CCNCC4)cn3)nc2n(C2CCCC2)c1=O [Palbociclib]; settings: max 10 µM
Outline: as §1

MK-2206 = compound: NC1(c2ccc(-c3nc4ccn5c(=O)[nH]nc5c4cc3-c3ccccc3)cc2)CCC1 [MK-2206]; settings: max 10 µM
Outline: as §1

SN-38 = compound: CCc1c2c(nc3ccc(O)cc13)-c1cc3c(c(=O)n1C2)COC(=O)[C@]3(O)CC [SN-38]; settings: max 0.3 µM
Outline: as §1

Doxorubicin = compound: COc1cccc2c1C(=O)c1c(O)c3c(c(O)c1C2=O)C[C@@](O)(C(=O)CO)C[C@@H]3O[C@H]1C[C@H](N)[C@H](O)[C@H](C)O1 [Doxorubicin]; settings: max 1 µM
Outline: as §1

Crizotinib = compound: C[C@@H](Oc1cc(-c2cnn(C3CCNCC3)c2)cnc1N)c1c(Cl)ccc(F)c1Cl [Crizotinib]; settings: max 10 µM
Outline: as §1

Lapatinib = compound: CS(=O)(=O)CCNCc1ccc(-c2ccc3ncnc(Nc4ccc(OCc5cccc(F)c5)c(Cl)c4)c3c2)o1 [Lapatinib]; settings: max 10 µM
Outline: as §1

Selumetinib = compound: Cn1cnc2c(F)c(Nc3ccc(Br)cc3Cl)c(C(=O)NOCCO)cc21 [Selumetinib]; settings: max 10 µM
Outline: as §1

AZD6738 = compound: C[C@@H]1COCCN1C2=NC(=NC(=C2)C3(CC3)[S@](=N)(=O)C)C4=C5C=CNC5=NC=C4 [AZD6738]; settings: max 10 µM
Outline: as §1

SRA737 = compound: N#Cc1cnc(Nc2cc(NC[C@H]3CNCCO3)c(C(F)(F)F)cn2)cn1 [SRA737]; settings: max 10 µM
Outline: as §1

Cell Line | IC50, cell viability 72 h (AZD5363) [µM] | IC50, cell viability 72 h (AZD8186) [µM] | IC50, cell viability 72 h (AZD4320) [µM] | IC50, cell viability 72 h (Etoposide) [µM] | IC50, cell viability 72 h (5-Fluorouracil) [µM] | IC50, cell viability 72 h (Venetoclax) [µM] | IC50, cell viability 72 h [1] [µM] | IC50, cell viability 72 h (AZD5153) [µM] | IC50, cell viability 72 h (Alisertib) [µM] | IC50, cell viability 72 h (AZD1390) [µM] | IC50, cell viability 72 h (Trametinib) [µM] | IC50, cell viability 72 h (Paclitaxel) [µM] | IC50, cell viability 72 h (Carboplatin) [µM] | IC50, cell viability 72 h (AZD5991) [µM] | IC50, cell viability 72 h (Olaparib) [µM] | IC50, cell viability 72 h (Taselisib) [µM] | IC50, cell viability 72 h (AZD0156) [µM] | IC50, cell viability 72 h (Gemcitabine) [µM] | IC50, cell viability 72 h (Gefitinib) [µM] | IC50, cell viability 72 h (AZD1775) [µM] | IC50, cell viability 72 h (AZD7648) [µM] | IC50, cell viability 72 h (AZD2811) [µM] | IC50, cell viability 72 h (Savolitinib) [µM] | IC50, cell viability 72 h (SG3199) [µM] | IC50, cell viability 72 h (Dasatinib) [µM] | IC50, cell viability 72 h (Prexasertib) [µM] | IC50, cell viability 72 h (Palbociclib) [µM] | IC50, cell viability 72 h (MK-2206) [µM] | IC50, cell viability 72 h (SN-38) [µM] | IC50, cell viability 72 h (Doxorubicin) [µM] | IC50, cell viability 72 h (Crizotinib) [µM] | IC50, cell viability 72 h (Lapatinib) [µM] | IC50, cell viability 72 h (Selumetinib) [µM] | IC50, cell viability 72 h (AZD6738) [µM] | IC50, cell viability 72 h (SRA737) [µM]
DOK (Oral Cavity Carcinoma) | 9.61 | > 10 | > 1 | > 10 | > 20 | > 1 | 0.633 | 0.652 | 4.51 | > 0.3 | 0.328 | 0.00513 | > 10 | > 1 | > 10 | 0.253 | > 3 | > 0.3 | > 10 | 1.26 | > 10 | > 1 | > 1 | > 0.001 | 0.165 | > 1 | > 10 | > 10 | 0.169 | > 1 | > 10 | 5.76 | 3.66 | > 10 | > 10
EW-22 (Ewing's Sarcoma) | > 10 | > 10 | 0.178 | 1.15 | > 20 | 0.72 | > 5 | 0.982 | 0.563 | > 0.3 | > 1 | 0.0192 | > 10 | > 1 | 1.73 | 0.936 | > 3 | 0.00606 | > 10 | 0.694 | > 10 | 0.0788 | > 1 | > 0.001 | > 2 | 0.00762 | > 10 | > 10 | 0.00131 | 0.0648 | 3.93 | > 10 | > 10 | 1.4 | 3.01
FU-OV-1 (Ovarian Carcinoma) | > 10 | > 10 | > 1 | > 10 | > 20 | > 1 | 3.8 | 0.511 | > 10 | > 0.3 | – | > 3 | > 10 | > 1 | > 10 | 1.09 | > 3 | > 0.3 | > 10 | > 3 | > 10 | > 1 | > 1 | – | 1.48 | 0.694 | > 10 | > 10 | > 0.3 | – | > 10 | > 10 | > 10 | > 10 | > 10
H4 (Low Grade Glioma) | 6.25 | 3.8 | > 1 | 2 | 9.69 | > 1 | > 5 | 0.164 | 0.312 | > 0.3 | > 1 | 0.0324 | > 10 | > 1 | > 10 | 3.68 | > 3 | 0.0223 | > 10 | 0.108 | > 10 | > 1 | > 1 | > 0.001 | > 2 | 0.0604 | 6.45 | > 10 | 0.0233 | 0.157 | 3 | > 10 | > 10 | 3.6 | > 10
HCC38 (Breast Carcinoma) | > 10 | > 10 | 0.503 | > 10 | > 20 | > 1 | > 5 | > 1 | > 10 | > 0.3 | > 1 | 0.296 | > 10 | > 1 | > 10 | > 10 | > 3 | 0.172 | > 10 | 0.43 | > 10 | > 1 | > 1 | > 0.001 | > 2 | 0.0804 | > 10 | > 10 | 0.0695 | > 1 | > 10 | > 10 | > 10 | > 10 | > 10
TC-YIK (Other Solid Carcinomas) | > 10 | > 10 | 0.057 | 1.64 | > 20 | > 1 | 2.73 | 0.0202 | – | > 0.3 | 0.156 | 0.00402 | > 10 | > 1 | > 10 | > 10 | > 3 | 0.0313 | > 10 | 0.576 | > 10 | 0.0219 | > 1 | – | > 2 | – | > 10 | > 10 | 0.00186 | – | 2.5 | > 10 | 7.13 | 1.93 | 4.37
